{
  "source": "patent US10203334B2",
  "about": "“Methods and compositions related to nucleic acid binding assays” (Nubad, LLC, priority 2012, dated 2019)",
  "key": {"TAR RNA": {"system": "TAR RNA", "conditions": "read-out: IC50 for inhibition of Tat peptide binding to the TAR RNA; cited from earlier work"}, "DNA d(G4C4) [1]": {"system": "DNA d(G4C4)", "assay": "Displacement of F-neo (42a) from GC DNA, 96-well", "type": "binding", "conditions": "one molar equivalent; FIG. 15", "from_the_text": "The HTS by the displacement of a fluorescene-neomycin (F-neo (42a)) bound from a synthetic DNA sequence eight bases long designed to conform to A-form DNA by the synthetic molecule neomycin-anthraquinone (67) using a 96 well plate format and a fluorescent plate reader is disclosed.\nThe high throughput screening (HTS) has been designed to determine the binding of drugs to the target sequence d(G4C4). The target is predicted to exist predominately in the A-form conformation of DNA. This HTS involves the displacement of a fluorescene-neomycin (F-neo (42a)) by DNA binding molecules in a 96 well plate format using a fluorescent plate reader. […] The quality of the assay was determined by the calculation of a Z′-factor using equation 1 for the displacement of F-neo (42a) from the DNA by neomycin-anthraquinone 67. The final assay results were obtained using the average (μn) and standard deviation (σn) from 36 wells of 0.1 μM F-neo (42a)/DNA d(G4C4) as the negative control and from the average (μp) and standard deviation (σp) 36 wells of 0.1 μM F-neo (42a)/DNA d(G4C4) mixed with 0.3 μM neomycin-anthraquinone 67 as the positive control.\nUpon binding to the DNA the fluorescence of F-neo (42a) is quenched. […] This increase is not observed with the addition of the minor groove binding compound 59, in which the change in the fluorescence observed is approximately the same as that of the DMSO control."}, "DNA d(G4C4) [2]": {"system": "DNA d(G4C4)", "assay": "Displacement of TO-neo (36a) from GC DNA, 96-well", "type": "binding", "conditions": "FIG. 14", "from_the_text": "The HTS by the displacement of a thiazole-neomycin (TO-neo (36a)) bound from a synthetic DNA sequence eight bases long designed to conform to A-form DNA by the synthetic molecule neomycin-anthraquinone 67 using a 96 well plate format and a fluorescent plate reader was disclosed herein.\nThe high throughput screening (HTS) has been designed to determine the binding of drugs to the target sequence d(G4C4). The target is predicted to exist predominately in the A-form conformation of DNA. This HTS involves the displacement of a TO-neo (36a) molecule by DNA binding molecules in a 96 well plate format using a fluorescent plate reader. […] The quality of the assay was determined by the calculation of a Z′-factor using equation 1 for the displacement of TO-neo (36a) from the DNA by a neomycin-anthraquinone 67 conjugate. […]\nThe fluorescence of the probe decrease approximately 60% with the addition of the neomycin-anthraquinone 67, a synthetic molecule predicted to bind in the major groove. However, with the addition of the minor groove binding compound 59, the change in fluorescence is less than 10%. The change in the fluorescence observed upon the addition of the compound 59 is approximately the same as that observed in the DMSO control."}, "[3]": {"system": "E. coli ribosomal A-site oligonucleotide (SEQ ID No. 1)", "assay": "96-well F-neo displacement HTS on ribosomal A-site", "type": "binding", "conditions": "0.30 mM F-neo, 0.3 mM A-site oligonucleotide, 1.0 mM neomycin", "from_the_text": "[drawing 24] where FHNeo represents the protonated form of F-neo. F(-)Neo, upon binding to nucleic acids such as DNA or RNA, is destabilized by the nucleic acid backbone negative potential, shifting the equilibrium towards FH, making F-neo a weaker acid, raising the pKa, which is what we observe upon binding to the A-site. For the A-site targeted assay, we calculated the Z' factor (Z=1-3(2.7+2.8)/(414-267)=0.89. […] Provided is a detailed example for the development of a HTS by the displacement of a fluorescene-neomycin (F-neo (42a)) from rRNA A-site oligonucleotide (SEQ ID No. 1) using a 96 well plate format and a fluorescent plate reader. […] This HTS involves the displacement of a fluorescene-neomycin (F-neo (42a)) by potential RNA binding molecules in a 96 well plate format using a fluorescent plate reader. […] F-neo based RNA binding assays have been performed using a fluorescence spectrophotometer with a 96-well plate reader and results recorded in FIG. 4. […] Fo is defined as the baseline fluorescence intensity of the RNA/F-neo complex and F is the intensity with added drug. The difference between the fluorescence intensity baseline of F-neo/A-site complex and complex with added drug (F-Fo) indicates the extent of the competition of drug for the binding site, this allows the relative binding affinities of aminoglycosides to be established. […]"}, "bacterial A-site oligos": {"system": "bacterial A-site oligos", "conditions": "cited from earlier work"}, "[4]": {"system": "dimeric form of a parallel quadruplex formed by the Tetrahymena telomere", "conditions": "cited from earlier work"}},
  "data": [
    {"compound": "gentamicin", "values": [
      {"measurement": "IC50", "setting": "TAR RNA", "result": "45 ± 4", "unit": "µM"}
    ]},
    {"compound": "NCC1O[C@H](OC2C(O)C(OC3C(O)[C@H](N)CC(N)[C@H]3O[C@H]3OC(CN)[C@@H](O)C(O)C3N)O[C@@H]2CSCCNC(=S)NCCNC(=O)c2ccc3c(c2)C(=O)c2ccccc2C3=O)C(N)C(O)[C@@H]1O", "note": "(stereo partly drawn) [neomycin-anthraquinone 67, Neomycin-Anthraquinone Conjugate]", "values": [
      {"measurement": "change in fluorescence of F-neo (42a) bound to d(G4C4)2 on addition of compound", "setting": "DNA d(G4C4) [1]", "result": "significant increase in the fluorescence"},
      {"measurement": "decrease in fluorescence of TO-neo (36a) bound to d(G4C4)2 on addition of compound", "setting": "DNA d(G4C4) [2]", "result": "approximately 60%"}
    ]},
    {"compound": "neomycin", "values": [
      {"measurement": "effect of added drug on fluorescence of F-neo/A-site oligonucleotide complex", "setting": "[3]", "result": "restored the intensity to F-neo only levels"},
      {"measurement": "IC50", "setting": "TAR RNA", "result": "0.92 ± 0.09", "unit": "µM"},
      {"measurement": "relative binding affinities with bacterial A-site oligos", "setting": "bacterial A-site oligos", "result": "neomycin>paromomycin>ribostamycin"},
      {"measurement": "affinity", "setting": "[4]", "result": "nanomolar affinity"}
    ]},
    {"compound": "NC[C@@H]1O[C@H](O[C@H]2[C@@H](O)[C@H](O[C@@H]3[C@@H](O)[C@H](N)C[C@H](N)[C@H]3O[C@H]3O[C@H](CO)[C@@H](O)[C@H](O)[C@H]3N)O[C@@H]2CO)[C@H](N)[C@@H](O)[C@@H]1O", "note": "[paromomycin]", "values": [
      {"measurement": "relative binding affinities with bacterial A-site oligos", "setting": "bacterial A-site oligos", "result": "neomycin>paromomycin>ribostamycin"}
    ]},
    {"compound": "CN(C)CCCNC(=O)c1cc(NC(=O)c2cc(NC(=O)c3nc(NC(=O)c4nc(NC(=O)CCCNC(=O)c5cc(NC(=O)c6cc(NC(=O)c7nc(NC(=O)c8nccn8C)cn7C)cn6C)cn5C)cn4C)cn3C)cn2C)cn1C", "note": "[compound 59, reference compound]", "values": [
      {"measurement": "change in fluorescence of F-neo (42a) bound to d(G4C4)2 on addition of compound", "setting": "DNA d(G4C4) [1]", "result": "not displaced"},
      {"measurement": "decrease in fluorescence of TO-neo (36a) bound to d(G4C4)2 on addition of compound", "setting": "DNA d(G4C4) [2]", "result": "less than 10%"}
    ]},
    {"compound": "NC[C@H]1O[C@H](O[C@H]2[C@H](O[C@@H]3O[C@H](CO)[C@@H](O)[C@H]3O)[C@@H](O)[C@H](N)C[C@@H]2N)[C@H](N)[C@@H](O)[C@@H]1O", "note": "[ribostamycin]", "values": [
      {"measurement": "relative binding affinities with bacterial A-site oligos", "setting": "bacterial A-site oligos", "result": "neomycin>paromomycin>ribostamycin"}
    ]},
    {"compound": "[H]/N=C(/N)N[C@H]1[C@H](O)[C@@H](O)[C@H](O[C@@H]2O[C@@H](C)[C@](O)(C=O)[C@H]2O[C@@H]2O[C@@H](CO)[C@H](O)[C@@H](O)[C@@H]2NC)[C@@H](N/C(N)=N\\[H])[C@@H]1O", "note": "[streptomycin]", "values": [
      {"measurement": "IC50", "setting": "TAR RNA", "result": "9.5 ± 0.8", "unit": "µM"}
    ]}
  ]
}
